The source of these data is US10597398B2, “Suppression and regeneration promoting effect of low molecular weight compound on cancer and fibrosis” (NATIONAL UNIVERSITY CORPORATION TOTTORI UNIVERSITY, priority 2015, dated 2020).

Assay type in all cases: cell-based, human
For data set [1], the system named is LX-2 cells. As to the kind of experiment: Growth inhibitory effect on LX-2 cells. The following applies: 100 μM.
In data set [2] the test system is Wnt/β-catenin signaling. The data set is described as follows: Inhibitory effect on Wnt/β-catenin signaling in mesenchymal stem cells (E7-TCF4 luciferase). As to the method: A pTCF4-CMVpro-GL4.20 plasmid vector, having 3 copies of TCF4 motifs (CCT TTG ATC) upstream of aCMV promoter in a multiple cloning site of pGL4.20 (Promega Corp., Fitchburg, Wis.), was linearized and stably transfected into UE7T-13 cells to prepare E7-TCF4 cells. Also, a pCMVpro-GL4.20 plasmid vector, having a CMV promoter in a multiple cloning site of pGL4.20, was linearized and stably transfected into UE7T-13 cells. The resulting stable cells (E7-CMV cells) were cultured, like UE7T-13 cells, in 10% FBS/DMEM containing 0.25 μg/mL puromycin.
UE7T-13 cells were used to measure Wnt/β-catenin signaling activity. The concentrations of the respective compounds were as described in FIG. 42. Each control sample used was 0.1% DMSO, a solvent for each compound.
First, 70 to 90% confluent E7-TCF4 cells and E7-CMV cells were harvested and seeded (n=3) at 1.6758×10^4 cells/well of a 24-well plate (9.0×10^3 cells/cm^2). One day after that, each compound was added to the cells and the mixture was cultured at 37° C. Day 4 after the compound addition, the culture medium was changed.
At day 1, 4, or 8 after the compound treatment, the culture medium was discarded, and 100 μL of room temperature 5×Passive Lysis Buffer (PLB), which had been diluted 5-fold with MilliQ water, was added to each well. Next, the plate was shaken at room temperature for 15 min and was then frozen at −30° C. overnight. A Luciferase Assay Substrate was diluted with 10 mL of room temperature Luciferase Assay Buffer II to prepare Luciferase Assay Reagent II (LARII). The frozen PLB lysate samples were thawed and permeabilized for 15 min. Then, 10 μL aliquots were added to wells of a 96-well white plate. While 50 μL aliquots of LARII were each added to each well, luminescence was quantified by using a 1420 multi-label counter ARVO MX to determine firefly luciferase activity.

For data set [3], the system named is cancer stem cells (CD44) in HuH-7 cells. The data set is described as follows: Inhibitory effect on cancer stem cells (FCM analysis of CD44), Example 2.4. The following applies: for inhibitory effect on cancer stem cells compared with IC-2: comparison with IC-2. The method, then: CD44, a cancer stem cell marker, was used as an indicator to examine an inhibitory effect of each compound on cancer stem cells. The concentrations of the respective compounds were as described in FIG. 32. Each control sample used was 0.1% DMSO, a solvent for each compound. In the figures, the “‡” indicates a significant difference of p<0.01.
First, 70 to 90% confluent HuH-7 cells were harvested and seeded at 1.5×10^6 cells per 10-cm cell culture dish. After 24 h, each compound was added to the cells and the mixture was cultured at 37° C. At 48 h after the compound treatment, the cells were harvested from each culture dish. The cells were centrifuged at 1000 rpm and at 4° C. for 3 min to remove a supernatant and were then washed twice with 1 mL of 0.5% FBS/2 mM EDTA/PBS. Next, the cells were suspended in 500 μL of 5% BSA/0.5% FBS/2 mM EDTA/PBS for blocking at 4° C. for 15 min. Then, 5 μL of a mouse anti-human CD44 monoclonal antibody (156-3C11, Cell Signaling Technology Inc., Danvers, Mass.) was added to 500 μL of the cell suspension. The mixture was resuspended and subjected to a primary antibody reaction in a dark room at 4° C. for 30 min. After that, the cells were washed 3 times with 1 mL of 0.5% FBS/2 mM EDTA/PBS. Subsequently, 100 μL of Alexa Fluor 488-labeled IgG (H+L) (ab150113, Abcam Ltd., Cambridge, UK), which had been diluted 200-fold with 5% BSA/0.5% FBS/2 mM EDTA/PBS, was added and the cells were suspended. Then, a secondary antibody reaction was carried out in a dark room at 4° C. for 30 min. After that, the cells were washed 3 times with 1 mL of 0.5% FBS/2 mM EDTA/PBS. Thereafter, the cells were suspended in 500 μL of 0.5% FBS/2 mM EDTA/PBS and were made to pass through a 40 μm-mesh column (Becton, Dickinson and Company, Franklin Lakes, N.J.). A Beckman Coulter-Moflo XDP (Beckman Coulter Inc., Fullerton, Calif.) was used for analysis. Following the analysis, further analysis was conducted by adding 2 μL of 0.25 mg/mL Propidium Iodide (PI). The same experiment was repeated four times.

For data set [4], the system named is LX-2 cells. The data set is described as follows: Anti-fibrosis effect, summary statements on Example 3 (marker not specified). The following applies: concentration even lower than that of IC-2. The text has this:
α-Smooth muscle actin (α-SMA), a fibrosis marker, was used as an indicator, and RNA was collected from LX-2 cells treated with each low-molecular-weight compound. Next, an inhibitory effect on fibrosis was examined by real-time RT-PCR.
In addition, instead of α-SMA, another fibrosis marker collagen, type I, alpha 1 (COL1A1) was used as an indicator, and substantially the same protocol was repeated. The concentrations of each compound used were as described in FIG. 34. Each control sample used was 0.1% DMSO, a solvent for each compound. Here, COL1A1 primers used were 5′-CCT CCA GGG CTC CAA CGA G-3′ and 5′-TCAATCACTGTCTTGCCCCA-3′. The annealing was performed at 58° C. for 5 sec. The measurement results were obtained by dividing the calculated value for the COL1A1 gene by the calculated value for the GAPDH gene.

In data set [5] the test system is mesenchymal stem cell. As to the kind of experiment: Hepatocyte differentiation-inducing effect, summary statements on Example 4 (readout not specified). The following applies: low concentration. The source says: Albumin, a hepatocyte marker, was used as an indicator, and RNA was collected from cells treated with each compound. Next, a hepatocyte differentiation-inducing effect was examined by real-time RT-PCR. The concentrations of the respective compounds were as described in FIG. 35. Each control sample used was 0.1% DMSO, a solvent for each compound.
By using urea synthesis, a hepatocyte function, as an indicator, a hepatocyte differentiation-inducing effect of each compound was investigated.
The cells treated with each compound were subjected to immunofluorescence analysis of albumin, a hepatocyte marker, to investigate a hepatocyte differentiation-inducing effect. The concentrations of the respective compounds were as described in FIG. 37. Each control sample used was 0.1% DMSO, a solvent for each compound.
By using glycogen synthesis, a hepatocyte function, as an indicator, a hepatocyte differentiation-inducing effect of each compound was investigated.

The subject of data set [6] is HuH-7 cells. The data set is described as follows: Growth inhibitory effect on cancer cells (WST assay), Example 2.3. The following applies: for IC50: HuH-7 cells, WST assay, concentrations 0-50 μM, control 0.1% DMSO; for IC50 compared with IC-2: comparison with IC-2. The method, then: HuH-7 cells, a human liver cancer cell line, were cultured on 10-cm cell culture dishes (TPP Techno Plastic Products AG, Trasadingen, Switzerland) by using DMEM under conditions at 5% CO2, 37° C., and 100% humidity. When the cells were 70 to 90% confluent, 200 μL of 0.25% Trypsin/1 mM EDTA solution, which had been prepared by diluting the stock solution 10-fold with PBS (−), was added to detach the cells. Then, the cells were centrifuged at 1000 rpm for 3 min at room temperature. The cells recovered were subcultured at a 1:4 split ratio.
First, 70 to 90% confluent HuH-7 cells were harvested and seeded (n=3) at 5×10^3 cells/well of a 96-well plate (TPP). After 24 h, each compound was added to the cells and the mixture was cultured at 37° C. The concentrations of each compound were 0, 10, 20, 30, 40, and 50 μM. For IC-2-506-1, however, the concentrations used were 0, 10, 20, 25, 30, 40, and 50 μM. Each control sample (0 μM) used was 0.1% DMSO, a solvent for each compound.
Next, 0, 24, 48, and 96 h after the compound treatment, 100 μIL of DMEM-diluted 10% Cell Counting Kit-8 (DOJINDO LABORATORIES, Kumamoto) was added. The mixture was incubated at 37° C. for 60 min and its absorbance (at a measurement wavelength of 450 nm/control wavelength of 600 nm) was measured by using a Sunrise Rainbow RC (Tecan Group Ltd., Mannedorf, Switzerland). Absorbance for the cells alone was calculated by subtracting, from the reading obtained, absorbance for 10% Cell Counting Kit-8 alone.
The “*” in figures indicates a significant difference of p<0.05 between 0.1% DMSO and each compound; and the “**” indicates a significant difference of p<0.01 (the same applies to all the figures in Examples).

Data set [7] relates to Wnt/β-catenin signaling. The data set is described as follows: Inhibitory effect on Wnt/β-catenin signaling in liver cancer cells (HuH7-TCF4 luciferase). The following applies: concentration equal to or lower than that of IC-2. As to the method: A pTCF4-CMVpro-GL4.20 plasmid vector, which had been constructed by inserting 3 copies of TCF4 motifs (CCT TTG ATC) upstream of a CMV promoter into a multiple cloning site of pGL4.20 (Promega Corp., Fitchburg, Wis.), was linearized and stably transfected into the HuH-7 cells. The resulting stable cells (HuH7-TCF4 cells) and HuH-7 cells were likewise cultured.
While each compound was added at concentrations where the growth of HuH-7 cells was reduced to about 50% or less, Wnt/β-catenin signaling activity was measured. The concentrations of the respective compounds were as described in FIG. 40. Control samples used were 0.1% DMSO, a solvent for each compound, and 0.5 μM 5-FU.
First, 70 to 90% confluent HuH7-TCF4 cells were harvested and seeded (n=3) at 5.0×10^4 cells/well of a 24-well plate (TPP). After 24 h, each compound was added to the cells and the mixture was cultured at 37° C.
At 48 h after the compound treatment, the culture medium was discarded, and 100 μL of room temperature 5×Passive Lysis Buffer (PLB) (Promega Corp., Fitchburg, Wis.), which had been diluted 5-fold with MilliQ water, was added to each well. Next, the plate was shaken at room temperature for 15 min and was then frozen at −30° C. overnight. A Luciferase Assay Substrate was diluted with 10 mL of room temperature Luciferase Assay Buffer II to prepare Luciferase Assay Reagent II (LARII) (Promega). The frozen PLB lysate samples were thawed and permeabilized for 15 min. Then, 10 μL aliquots were added to wells of a 96-well white plate (Corning Inc., Corning, N.Y.). While 50 μL aliquots of LARII were each added to each well, luminescence was quantified by using a 1420 multi-label counter ARVO MX (PerkinElmer Singapore Pte Ltd., Singapore) to determine firefly luciferase activity. Note that a significant difference was evaluated by using (two-tailed) Student's t-test. The “*” in figures indicates a significant difference of p<0.05 between 0.1% DMSO and each compound; and the “**” indicates a significant difference of p<0.01 (the same applies to all the figures in Examples).

Turning to `NC(=O)N1CCC(=O)N2C(Cc3ccccc3)C(=O)N(Cc3cccc4ccccc34)CC12` (stereo not shown) [Compound 9b-CONH2], the “growth inhibitory effect on LX-2 cells” value in data set [1] is reported as “Neither 100 μM of 9b nor 9b-CONH2 exhibited a growth inhibitory effect”.
Consider `O=C1C(Cc2ccccc2)N2C(=O)CCNC2CN1Cc1cccc2ccccc12` (stereo not shown) [Compound 9b], for which the “inhibitory effect on Wnt/β-catenin signaling in mesenchymal stem cells” value in data set [2] (E7-TCF4 cells, day 8 after compound addition, compared with control 0.1% DMSO) was “all the compounds except for IC-2-Ar-OMe, 9b, and 7c-NT exhibited a significant inhibitory effect”. Moreover, in data set [1], the “growth inhibitory effect on LX-2 cells” value was “Neither 100 μM of 9b nor 9b-CONH2 exhibited a growth inhibitory effect”.
Regarding `O=C1C(Cc2ccccc2)N2C(=O)CCN(C(=O)NCc3ccc(F)cc3)C2CN1Cc1cccc2ccccc12` (stereo not shown) [IC-2-F], the “inhibitory effect on cancer stem cells compared with IC-2” value in data set [3] is “more potent inhibitory effect on cancer stem cells than IC-2”. For the same compound, the “anti-fibrosis effect compared with IC-2, lower concentration” value in data set [4] is reported as “more potent anti-fibrosis effect”. Moreover, the “hepatocyte-inducing effect at low concentration” value in data set [5] is recorded as “exerted a hepatocyte-inducing effect”. Besides, in data set [6], the half-inhibitory concentration (IC50) is 22.2 µM and the “IC50 compared with IC-2” value is “lower IC50 than IC-2”. In data set [7], the “inhibitory effect on Wnt/β-catenin signaling pathway in liver cancer cells compared with IC-2” value was “more potent inhibitory effect”.
With `O=C1C(Cc2ccccc2)N2C(=O)CCN(C(=O)NCc3ccc([N+](=O)[O-])cc3)C2CN1Cc1cccc2ccccc12` (stereo not shown) [IC-2-NO2], the “inhibitory effect on cancer stem cells compared with IC-2” value in data set [3] was “more potent inhibitory effect on cancer stem cells than IC-2”. The “inhibitory effect on Wnt/β-catenin signaling pathway in mesenchymal stem cells compared with IC-2” value in data set [2] (concentration equal to or lower than that of IC-2) was “more potent inhibitory effect”. Moreover, in data set [6], the IC50 was 28.1 µM. In addition, the “inhibitory effect on Wnt/β-catenin signaling pathway in liver cancer cells compared with IC-2” value in data set [7] is recorded as “more potent inhibitory effect”.
For `CC(C)(C)[Si](C)(C)Oc1ccc(CNC(=O)N2CCC(=O)N3C(Cc4ccccc4)C(=O)N(Cc4cccc5ccccc45)CC23)cc1` (stereo not shown) [IC-2-OTBS], in data set [3] (concentration even lower than that of IC-2), the “inhibitory effect on cancer stem cells at a concentration lower than that of IC-2” value is listed as “exerted an inhibitory effect on cancer stem cells”. In addition, the “anti-fibrosis effect compared with IC-2, lower concentration” value in data set [4] was “more potent anti-fibrosis effect”. Moreover, the “hepatocyte-inducing effect at low concentration” value in data set [5] was “exerted a hepatocyte-inducing effect”. In data set [6], the midpoint of inhibition, the IC50, lay at 11.8 µM and the “IC50 compared with IC-2” value is recorded as “lower IC50 than IC-2”. Besides, the “anti-tumor effect compared with IC-2” value in data set [6] (at a concentration lower than that of IC-2) is given as “more potent anti-tumor effect”.
